Laboratory results from patent US11857588B2, “Reproductive cell maintenance system” (Membrane Protective Technologies, Inc., priority 2005, dated 2024).
Like-named read-outs stand apart in the source and are kept apart here.

How the values were obtained:
[1] = test system: stallion sperm cells; format: cell-based
Experimental: In a first experiment (data set out to the right of Exp 1 in Tables 1-6), semen was collected from two stallions via artificial vagina. The motility of each ejaculate was determined subjectively via light microscope and the semen was diluted to a final concentration of about 5×10^8 motile sperm cells/ml with E-Z freezin LE (Animal Reproduction Systems, Chino, Calif.) and combined to one each of thirteen 0.25 mL semen samples was an amount of a corresponding one of thirteen adjuvants: (1) no addition-control (“untreated control semen sample); 2) about 5% cyclodextrin; 3) about 2.5% cyclodextrin; 4) about 5% pulp oil in cyclodextrin; 5) about 2.5% pulp oil in cyclodextrin; 6) about 5% seed oil in cyclodextrin; 7) about 2.5% seed oil in cyclodextrin; 8) emulsion of about 5% seed oil, 9) emulsion of about 2.5% seed oil, 10) emulsion of about 5% pulp oil, 11) emulsion of about 2.5% pulp oil, 12) about 5% juice, and 13) about 2.5% juice. Throughout this description the amount of extract is expressed as a percentage volume to volume (v/v) unless otherwise indicated.
Following dilution of each semen sample with E-Z freezin LE and combining the diluted semen with the corresponding adjuvant (“treated semen samples”), the treated semen samples were cooled by reducing the temperature at a controlled rate to about 5° C. […]

[2] = test system: stallion sperm cells; format: cell-based; remark: listed apart in the source
Experimental: In a second experiment (data set out to the right of Exp 2 in Tables 5-6), semen was collected from one stallion via artificial vagina. The motility of the ejaculate was determined objectively using a Hamilton-Thorn sperm analyzer with a 37° C. stage warmer. The assessed data included percentage of motile sperm cells, progressive motile sperm cells, as well as average path velocity, straight line velocity, and straightness of motile sperm cells in accordance with conventional operating procedures for the instrument. […]
Following dilution of each semen sample with E-Z Mixin CST and the corresponding adjuvant, the treated semen samples were cooled by reducing the temperature at a controlled rate to about 4° C. Motility was evaluated subjectively via light microscope immediately at 24, 38, and 72 h after being held at about 4° C. […]

Q: For cyclodextrin, which “effect on sperm cells (spermicidal)” value [1] is on record?
A: spermicidal

Q: What about the “effect on sperm cells (spermicidal)” value [2] of the same substance?
A: spermicidal
